# Source: patent publication US20040033614A1, “Detection of oxidative intermediates in biological samples” (priority 2002, published 2004)
# Legend:
# [1] = Blood pressure and proteinuria in the add-on losartan trial; type: in vivo, patients with chronic kidney disease; conditions: losartan 50 mg/d added to lisinopril 40 mg/d; as reported previously (15)
# Method: The protocol design of this study was reported in detail previously (15). Briefly, patients between the ages of 18 to 80 years with proteinuria of ≧1 g/d, hypertension defined as mean arterial pressure ≧97 mm Hg, serum potassium of ≦5.5 mEq/L and on lisinopril therapy of 40 mg/d for >3 months were eligible for the study. […] The study was a two period, cross-over, randomized controlled trial. Patients received either a sequence of losartan 50 mg/d for 4 weeks, a two week washout, and then placebo for 4 weeks or placebo for 4 weeks, a two week washout, and then losartan 50 mg/d for 4 weeks. Lisinopril 40 mg/d along with other anti-hypertensive therapy were continued throughout the trial. […] Serum chemistries, complete blood counts, urine protein, electrolytes, urea and creatinine were measured in a hospital laboratory using routine methods. Specifically, creatinine was measured on a Hitachi 911 analyzer (Boehringer Mannheim) using the alkaline picrate method and urine protein was measured using a turbidometric method using benzethonium chloride read at 550 nm (Roche Diagnostics Corporation, Indianapolis, Ind.). Ambulatory blood pressure was measured with SpaceLabs 90207 monitors and glomerular filtration rate measurements with continuous infusion of iothalamate as previously reported (15).
# [2] = tested on: plasma albumin and total plasma protein oxidation; assay: Carbonylation of plasma proteins by Western blotting (DNP derivatization, OxyBlot); type: in vivo, patients with chronic kidney disease; conditions: before vs after losartan 50 mg/d for 4 weeks
# Method: (§1) The protocol design of this study was reported in detail previously (15). Briefly, patients between the ages of 18 to 80 years with proteinuria of ≧1 g/d, hypertension defined as mean arterial pressure ≧97 mm Hg, serum potassium of ≦5.5 mEq/L and on lisinopril therapy of 40 mg/d for >3 months were eligible for the study. Patients who had previously received angiotensin receptor blockers or with estimated creatine clearance of <30 ml/min were excluded.
# The study was a two period, cross-over, randomized controlled trial. […]
# Oxidation of plasma and urine proteins was measured by Western blot analysis according to the method of Shacter et al. Total protein was determined using the Vitros Dry Slide system (Ortho-Clinical Diagnostics, Rochester, N.Y.). […] Derivatized and underivatized plasma or urine samples were loaded on electrophoresis gels in volumes calculated to give 5 μg of protein per sample, and the samples were electrophoresed according to the method of Laemmli on 4 to 20% gradient SDS-PAGE (Bio-Rad, Hercules, Calif.). […] Blots were scanned on a Hewlett-Packard ScanJet 5200C scanner (Hewlett-Packard, Palo Alto, Calif.) and analyzed for band area using Un-Scan-It Gel software (Silk Scientific, Orem, Utah).
# Samples from individual patients before and after losartan therapy, including derivatized and underivatized controls, were analyzed on a single Western blot. […]
# [3] = tested on: urinary albumin and total urinary protein oxidation; assay: Carbonylation of urine proteins by Western blotting (DNP derivatization, OxyBlot); type: in vivo, patients with chronic kidney disease
# Method: as §1
# (§2) The study was a two period, cross-over, randomized controlled trial. Patients received either a sequence of losartan 50 mg/d for 4 weeks, a two week washout, and then placebo for 4 weeks or placebo for 4 weeks, a two week washout, and then losartan 50 mg/d for 4 weeks. Lisinopril 40 mg/d along with other anti-hypertensive therapy were continued throughout the trial. 24-hour urine was collected for protein, sodium, urea and creatinine, urinary carbonylated protein, malondialdehyde and monocyte chemotactic protein-l (MCP1) measurements. As the standard therapy for patients with proteinuria and renal failure includes ACE-inhibitors, ACE-inhibitors were not removed from any patient enrolled in the study.
# Oxidation of plasma and urine proteins was measured by Western blot analysis according to the method of Shacter et al. Total protein was determined using the Vitros Dry Slide system (Ortho-Clinical Diagnostics, Rochester, N.Y.). Plasma was diluted 1:25 (v:v) with phosphate-buffered saline (PBS), and one aliquot of the diluted sample was derivatized and another prepared as an underivatized control using the OxyBlot protein oxidation detection kit (Intergen, Purchase, N.Y.). […] Derivatized and underivatized plasma or urine samples were loaded on electrophoresis gels in volumes calculated to give 5 μg of protein per sample, and the samples were electrophoresed according to the method of Laemmli on 4 to 20% gradient SDS-PAGE (Bio-Rad, Hercules, Calif.). […] Bands were visualized with chemiluminescent chemicals and captured on film at two exposure times (30 seconds and 1 minute). Blots were scanned on a Hewlett-Packard ScanJet 5200C scanner (Hewlett-Packard, Palo Alto, Calif.) and analyzed for band area using Un-Scan-It Gel software (Silk Scientific, Orem, Utah).
# Samples from individual patients before and after losartan therapy, including derivatized and underivatized controls, were analyzed on a single Western blot. This ensured that the response to losartan therapy was compared under the same analytical conditions. […] Density of individual albumin bands and total protein in each sample lane was determined using the same size section of each scanned blot. […] The uniform window size and analysis box ensured that data were being analyzed consistently from band to band and from blot to blot. […]
# plasma protein carbonyl = assay: Total plasma protein carbonyl measurement by size exclusion HPLC; type: in vivo, patients with chronic kidney disease; conditions: direct measurement of protein carbonylation in plasma
# Method: as §1, §2
# urinary MDA = assay: Urinary malondialdehyde by fluorometric HPLC, cross-over trial of add-on losartan; type: in vivo, patients with chronic kidney disease; conditions: losartan 50 mg/d for 4 weeks added to lisinopril 40 mg/d; significantly decreased from 4.75±3.23 before therapy; mean ± SD, 16 patients
# Method: (§3) Sample derivatization was carried out in 2 mL capacity plastic centrifuge tubes fitted with screw-on caps. To a 50 μl aliquot of sample or TEP standard, 50 μl BHT solution, 400 μl H3PO4 solution, and 100 μl TBA solution were added. Sample tubes were capped tightly, vortexed and then heated for 1 hour in a 100° C. dry bath incubator. Following heat derivatization, samples were placed in an ice-water (0° C.) water bath for 5 minutes to cool. 250 μl n-butanol was subsequently added to each vial for extracting the MDA-TBA complex. Tubes were vortexed for 5 minutes and then centrifuged for 3 minutes at 14,000× min^−1 to separate the two phases. Aliquots of 100 μl were removed from the n-butanol layer of each sample and placed in HPLC vials for analysis.
# (§4) The chromatographic system consisted of a Hewlett-Packard Chromatographic Series 1100 autosampler and isocratic pump and Hewlett-Packard model 1046A programmable fluorescence detector (Palo Alto, Calif., USA). The autosampler was programmed to inject 10 μl of each sample at 1-minute intervals. The pump flow rate was 1.0 ml/min with the mobile phase comprised of methanol-buffer (40:60, v/v). […] The fluorescence detector was set at an excitation wavelength of 515 nm and emission wavelength of 553 nm. […] Peak areas were determined using a ChromJet integrator (Thermo Separation Products, San Jose, Calif.). […]
# plasma MDA = assay: Plasma malondialdehyde by fluorometric HPLC, cross-over trial of add-on losartan; type: in vivo, patients with chronic kidney disease; conditions: losartan 50 mg/d for 4 weeks added to lisinopril 40 mg/d
# Method: as §3, §4
# [4] = tested on: superoxide dismutase and glutathione peroxidase; conditions: 5/6th nephrectomized rats treated with enalapril; reference 26; cited from earlier work
smiles,measurement,setting,value
CCCCc1nc(Cl)c(CO)n1Cc1ccc(-c2ccccc2-c2nn[nH]n2)cc1 [losartan],"blood pressure, change in response to add-on losartan therapy",[1],no change
same,"proteinuria, change in response to add-on losartan therapy",[1],no change
same,"plasma albumin oxidation, change with losartan",[2],remained unchanged
same,"plasma protein oxidation, change with losartan",[2],remained unchanged
same,total urinary protein oxidation in excess of plasma after losartan therapy,"[3]; after treatment, p=0.029, 99% higher before therapy",69%
same,urinary albumin oxidation compared to plasma albumin after losartan,"[3]; after treatment, p=0.45, 71% higher before therapy",no more oxidized
same,"total urinary protein oxidation, change with losartan",[3]; before vs after losartan 50 mg/d for 4 weeks,did not reach statistical significance
same,oxidative damage to urinary albumin,"[3]; losartan 50 mg/d for 4 weeks added to lisinopril 40 mg/d, before vs after, proteinuria not reduced",reduced
same,"carbonyl concentration from oxidized proteins in plasma, change with losartan",plasma protein carbonyl,remained unchanged
same,urinary MDA levels after losartan therapy,urinary MDA,3.39±2.17 μmol/g creatinine
same,"plasma MDA, change in response to losartan therapy",plasma MDA,Neither plasma MDA or plasma oxidized proteins (FIGS. 6B and 7) changed
CCOC(=O)[C@H](CCc1ccccc1)N[C@@H](C)C(=O)N1CCC[C@H]1C(=O)O [enalapril],"antioxidant enzymes in the kidney (superoxide dismutase, glutathione peroxidase)",[4],increased
